Laboratory results: patent US11311522B1 (Cavion, Inc., priority 2018, dated 2022)
Like-named read-outs stand apart in the source and are kept apart here.

Legend:
[1] = target: human peroxisome proliferator-activated receptor gamma (PPARγ) (Homo sapiens, UniProt P37231); assay: PPARγ binding
[2] = Phase 1 multiple-dose pharmacokinetics (PN002/Part II); conditions: for half-life / AUC / Cmax: human, plasma
[3] = tested on: WAG/Rij rats; assay: WAG/Rij rat model of absence epilepsy; assay type: in vivo; conditions: 10 mg/kg oral
Excerpt: Other T-type antagonists from structurally diverse series have shown similar efficacy in this model (Broicher, 2007; Blumenfeld, 2008; Broicher, 2008; Shipe, 2008; Yang, 2008; Uebele, 2009; Russo, 2010; Russo, 2011).
Data were scored with automated seizure analysis software, averaged, and normalized to enable treatment comparisons (FIG. 76)
Control animals received vehicle administrations. […] Source: Merck TTA Package Description (FIG. 79).

[4] = target: T1, CYP2C9 (Homo sapiens, UniProt P11712); assay: In vitro metabolism (liver microsomes, hepatocytes, recombinant CYPs, anti-CYP antibodies); assay type: in vitro ADME; conditions: recombinant CYP2C9
T1 construct: host or cells: pooled liver microsomes, hepatocytes and recombinant CYP enzymes
T1 sequence (P11712 whole entry): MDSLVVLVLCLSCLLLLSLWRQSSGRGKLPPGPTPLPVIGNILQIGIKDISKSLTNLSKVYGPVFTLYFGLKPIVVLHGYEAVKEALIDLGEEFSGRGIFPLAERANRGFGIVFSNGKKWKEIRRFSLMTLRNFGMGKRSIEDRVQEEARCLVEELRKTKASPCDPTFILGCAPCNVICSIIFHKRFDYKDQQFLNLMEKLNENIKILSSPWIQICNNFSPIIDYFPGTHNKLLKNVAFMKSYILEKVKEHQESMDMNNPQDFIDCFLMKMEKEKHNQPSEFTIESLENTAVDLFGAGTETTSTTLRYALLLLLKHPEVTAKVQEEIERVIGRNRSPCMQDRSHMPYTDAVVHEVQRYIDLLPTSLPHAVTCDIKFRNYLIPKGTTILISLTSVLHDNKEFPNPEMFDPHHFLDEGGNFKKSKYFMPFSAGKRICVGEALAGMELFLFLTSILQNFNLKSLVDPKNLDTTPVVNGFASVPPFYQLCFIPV
Excerpt: (§1) Glucuronide conjugates of the oxygenated metabolites are detected in human, monkey, and dog hepatocyte preparations. […] However, the abundance of CYP3A5, CYP2C19, and CYP2D6 in human liver microsomes is low (2%-5%) relative to the primary contributors, CYP3A4 (˜30%) and CYP2C9 (˜20%). […] Information on reproductive and developmental toxicology was obtained in a 28-day pivotal female fertility study in rats and in preliminary embryo-fetal development studies in rats and rabbits.

[5] = Single-dose toxicokinetic study in dogs; assay type: in vivo; conditions: dog, plasma, po, 800 mg/kg
[6] = clinical; conditions: human, plasma, oral, 8 mg
Excerpt: Subjects will be screened for study eligibility within 28 days before administration of the first dose of study drug. Subjects who meet the study eligibility criteria will be admitted to the clinical research unit in the afternoon of the day before administration of the first dose of study drug (Period 1/Day −1).
Treatments A, B, and C will be separated by a minimum 7-day washout period. […] Administration of Treatment D may be separated from administration of Treatments A, B, and C by approximately 4 weeks to allow for analysis of the bioanalytical samples from the first 3 treatments.

[7] = In vitro plasma protein binding, human; assay type: in vitro ADME
[8] = in vivo; conditions: Beagle, dog, po, 300 mg/kg
[9] = T-CALM: plasma concentrations by 5-in-1 LC/MS/MS; assay type: in vivo, human; conditions: for Plasma concentration, mean: trough
Procedure: Additionally, at Visit 4, a post-dose sample will be collected as close to 4 hours post-dose as possible, but within the window of 4-6 hours post-dose (i.e., a total of two PK samples are collected at Visit 4.)
Assay performances were satisfactory and met acceptance criteria for system performance suitability, quantitation range, calibration linearity, assay accuracy and precision, and assay recovery.

[10] = in vivo; conditions: female, rat, po, 10 mg/kg/day
[11] = Brain penetration in male rats; assay type: in vivo; conditions: rat, 25 mg/kg
[12] = Simulated Css and total active moiety, 10 mg BID; design: species or system human; conditions: for Css, estimated mean / Steady-state AUC24, estimated mean: M01, CX-8998 10 mg twice daily fasted
[13] = Pharmacokinetics in rats; assay type: in vivo, rat; conditions: for Ratio of AUC24 (metabolite/CX-8998): Rat, single oral dose 10 mg/kg of CX-8998; for AUC: rat, plasma, po, 10 mg/kg, read-out: AUC24
Procedure: The validity and reproducibility of the assays were determined, and the precision and accuracy for calibration standards and quality control samples were examined. […] The analytes were stable in plasma under the storage and assay conditions. […] Assay performances were satisfactory and met acceptance criteria for system performance suitability, quantitation range, calibration linearity, assay accuracy and precision, and assay recovery.

[14] = tested on: CYP2B6; assay: CYP2B6 mRNA induction in human hepatocytes; assay type: in vitro ADME
Excerpt: as §1

[15] = M01, Day 7, CX-8998 2 mg once daily
[16] = M01, Day 7, CX-8998 18 mg once daily
[17] = simulated from CX-8998 10 mg BID

Sequence of human peroxisome proliferator-activated receptor gamma (PPARγ) (P37231 whole entry): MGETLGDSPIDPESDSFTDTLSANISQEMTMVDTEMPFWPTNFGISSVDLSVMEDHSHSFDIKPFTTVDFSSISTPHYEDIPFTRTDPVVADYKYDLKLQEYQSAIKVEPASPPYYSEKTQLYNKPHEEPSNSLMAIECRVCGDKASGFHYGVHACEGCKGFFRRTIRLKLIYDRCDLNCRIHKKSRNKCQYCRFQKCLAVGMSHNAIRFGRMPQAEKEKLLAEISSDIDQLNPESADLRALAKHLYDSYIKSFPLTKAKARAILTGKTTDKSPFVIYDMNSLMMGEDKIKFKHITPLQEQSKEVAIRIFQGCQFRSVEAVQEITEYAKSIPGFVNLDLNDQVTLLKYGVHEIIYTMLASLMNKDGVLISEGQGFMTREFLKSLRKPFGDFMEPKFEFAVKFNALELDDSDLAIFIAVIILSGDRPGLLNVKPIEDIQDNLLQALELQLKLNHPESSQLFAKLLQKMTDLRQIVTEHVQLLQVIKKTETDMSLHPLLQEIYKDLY

For `C=C(C)c1ccc(CC(=O)N[C@H](C)c2ccc(OCC(F)(F)F)cn2)cc1` [M01], the inhibition at 10 µM [1] was 54%, the “AUC Ratio, metabolite to parent” value [2, 15] was 1.12 and the “Cmax Ratio, metabolite to parent” value [2, 15] was 0.36. The “Cmax Ratio, metabolite to parent” value ([2]; M01, Day 7, CX-8998 4 mg once daily) was 0.36, the “AUC Ratio, metabolite to parent” value ([2]; M01, Day 7, CX-8998 12 mg once daily) was 1.15 and the “AUC Ratio, metabolite to parent” value [2, 16] was 1.34. The “Cmax Ratio, metabolite to parent” value [2, 16] was 0.57, the “Relative potency (CX-8998 = 1.00)” value ([2]; based on potency, free fraction, maximum Cmax ratios) was 0.27 and the half-life ([2]; 2 mg) was 25.8 h. It also gave an AUC ([2]; 2 mg, AUC24, M01, Day 7, CX-8998 2 mg once daily) of 1.52 µM·h, a Cmax ([2]; 2 mg, M01, Day 7, CX-8998 2 mg once daily) of 76 nM and an AUC ([2]; 4 mg, AUC24, M01, Day 7, CX-8998 4 mg once daily) of 2.83 µM·h. For the same compound, the Cmax ([2]; 4 mg, M01, Day 7, CX-8998 4 mg once daily) was 136 nM, the half-life ([2]; 12 mg) was 22.6 h and the half-life ([2]; 18 mg) was 19 h. For the same compound, the AUC ([2]; 18 mg, AUC24, M01, Day 7, CX-8998 18 mg once daily) was 18.3 µM·h, the Cmax ([2]; 18 mg, M01, Day 7, CX-8998 18 mg once daily) was 865 nM and the half-life ([2]; male, oral) was 19 to 25.8 h. The Percent of inhibition [3] was 71%, the “KM for CYP2C9 reactions (formation)” value [4] was roughly 3 µM and the Tmax ([5]; female) was 8 h. The Tmax ([5]; male) was 8 h, the AUC(0-t) [6] was 6.88 µM·h and the Cmax [6] was 124 nM. The Tmax [6] was 29 h, the fraction unbound ([7]; human plasma, read-out: Human-free fraction) was less than 0.001 and the fraction unbound ([7]; human plasma, read-out: In vitro plasma protein binding (converted)) was less than 0.001. For the same compound, the fraction unbound ([7]; humans, read-out: free fraction) was less than 0.001, the Kp at 24 h ([8]; female, CSF) was 0.112 and the concentration at 24 h ([8]; female, CSF) was 112 nM. For the same compound, the Kp at 24 h ([8]; female, brain (frontal cortex)) was 0.696, the concentration at 24 h ([8]; female, brain (frontal cortex)) was 696 nM and the Kp at 24 h ([8]; female, brain (thalamus)) was 0.772. It also gave a concentration at 24 h ([8]; female, brain (thalamus)) of 772 nM, a Kp at 24 h ([8]; male, CSF) of 0.149 and a concentration at 24 h ([8]; male, CSF) of 149 nM. For the same compound, the Kp at 24 h ([8]; male, brain (frontal cortex)) was 0.19, the concentration at 24 h ([8]; male, brain (frontal cortex)) was 190 nM and the Kp at 24 h ([8]; male, brain (thalamus)) was 0.208. For the same compound, the concentration at 24 h ([8]; male, brain (thalamus)) was 208 nM, the “Plasma concentration, mean” value ([9]; Visit 2 (Day 8), 4 mg BID) was 398 nM and the “Plasma concentration, mean” value ([9]; Visit 3 (Day 15), 8 mg BID) was 812 nM. For the same compound, the “Plasma concentration, mean” value ([9]; Visit 4 (Day 28), 10 mg BID) was 1023 nM, the concentration at 4 h ([9]; human, plasma, oral, Visit 4 (Day 28), 10 mg BID, 4 hours post-dose) was 976 nM and the AUC [10] was 8.11 µM·h. The Cmax [10] was 2660 nM, the Kp at 2 h ([11]; brain and plasma, oral, read-out: Brain-to-plasma ratio) was 0.27 and the Kp at 2 h ([11]; brain, po, read-out: Brain: Plasma Ratio) was 0.27. The “Potency relative to CX-8998” value [12] was 1.57, the “Css, estimated mean” value ([12]; middle-aged and elderly men) was 1167 nM and the “Steady-state AUC24, estimated mean” value ([12]; middle-aged and elderly men) was 28.008 µM·h. The “Css, estimated mean” value ([12]; middle-aged and elderly women) was 1146 nM, the “Steady-state AUC24, estimated mean” value ([12]; middle-aged and elderly women) was 27.504 µM·h and the “Css, estimated mean” value ([12]; young men) was 771 nM. For the same compound, the “Steady-state AUC24, estimated mean” value ([12]; young men) was 18.504 µM·h, the “Cu, ss_adj” value ([12]; adjusted for fu and potency, 10 mg BID) was less than 1.2 nM and the “Cp, ss” value [12, 17] was 771 nM. The “Cu, ss” value [12, 17] was less than 0.8 nM, the “Ratio of AUC24 (metabolite/CX-8998)” value ([13]; Female) was 0.52 and the “Ratio of AUC24 (metabolite/CX-8998)” value ([13]; Male) was 0.63. For the same compound, the AUC ([13]; female) was 8.7 µM·h, the AUC ([13]; male) was 3.7 µM·h and the CYP2B6 induction [14] was “mild to moderate inducers”.
